Test results: patent publication US9115150B2, “Camptothecin compound containing stable 7-membered lactone ring, preparation method and use” (EAST CHINA NORMAL UNIVERSITY, priority 2012, dated 2015)

Key:
HCT-116 cells = test: Anti-tumor (cytotoxic) activity assay, SRB method, HCT-116; format: cell-based; conditions: Homo sapiens, HCT-116 tumor cells, 72 h at 37° C., read-out: growth inhibition activity on HCT-116 cells, IC50
Method: (§1) All the cytotoxic activity assays of the compounds were conducted on corresponding tumor cell lines. There were 6000˜10000 tumor cells per 100 μL of culture medium, and they were placed in a 96-well plate (Falcon, Calif.). The tumor cells were divided into 3 parts, and treated with drugs having gradient concentrations. The tumor cells were cultivated for 72 h at 37° C., and assayed using SRB method. The concentration that 50% of the growth of the tumor cells growth was inhibited, i.e., IC50, was calculated from dosage-activity curves.

A549 cells = test: Anti-tumor (cytotoxic) activity assay, SRB method, A549; format: cell-based; conditions: Homo sapiens, 72 h at 37° C., read-out: growth inhibition activity on A549 cells, IC50
Method: as §1

SMILES: CC[C@@]1(O)C(=O)OCc2c1cc1n(c2=O)Cc2cc3cc(O)ccc3nc2-1 [Compound 10-HCPT, 10-hydroxylcamptothecin, reference compound]
- IC50 (HCT-116 cells): 31.2 ± 8.2 nM
- IC50 (A549 cells): 33.6 ± 17.8 nM

SMILES: CC[C@]1(O)c2cc3n(c(=O)c2COC(=O)[C@@H]1O)Cc1cc2ccccc2nc1-3 [Ysb-2, (20S,20aR)-20a-hydroxylhomocamptothecin]
- IC50 (HCT-116 cells): 49.3 ± 15 nM
- IC50 (A549 cells): 16.8 ± 4.2 nM

SMILES: CCc1c2c(nc3ccc(O)cc13)-c1cc3c(c(=O)n1C2)COC(=O)[C@H](OC(C)=O)[C@]3(O)CC [Ysb-9, (20S,20aR)-10-hydroxyl-7-ethyl-20a-acetoxy homocamptothecin]
- IC50 (HCT-116 cells): 133 ± 18.7 nM
- IC50 (A549 cells): 226 ± 15.8 nM

SMILES: CC[C@]1(O)c2cc3n(c(=O)c2COC(=O)[C@@H]1OC(C)=O)Cc1cc2cc4c(cc2nc1-3)OCCO4 [Ysb-7]
- IC50 (HCT-116 cells): 4.9 ± 4.1 nM
- IC50 (A549 cells): 4.6 ± 2.9 nM

SMILES: CC[C@]1(O)c2cc3n(c(=O)c2COC(=O)[C@@H]1OC(C)=O)Cc1cc2ccccc2nc1-3 [Ysb-1, (20S,20aR)-20a-acetoxyhomocamptothecin]
- IC50 (HCT-116 cells): 14.2 ± 6.1 nM
- IC50 (A549 cells): 49.2 ± 34.6 nM

SMILES: CCc1c2c(nc3ccc(O)cc13)-c1cc3c(c(=O)n1C2)COC(=O)[C@H](O)[C@]3(O)CC [Ysb-10, (20S,20aR)-10-hydroxyl-7-ethyl-20a-hydroxyl homocamptothecin]
- IC50 (HCT-116 cells): 366 ± 213 nM
- IC50 (A549 cells): 30.3 ± 18.4 nM

SMILES: CC[C@@]1(O)C(=O)OCc2c1cc1n(c2=O)Cc2cc3ccccc3nc2-1 [CPT, Camptothecin]
- IC50 (HCT-116 cells): 22.9 ± 12 nM
- IC50 (A549 cells): 33.8 ± 13.9 nM

SMILES: CC[C@]1(O)c2cc3n(c(=O)c2COC(=O)[C@@H]1O)Cc1cc2cc(OC)ccc2nc1-3 [Ysb-4, (20S,20aR)-10-methoxy-20a-hydroxylhomocamptothecin]
- IC50 (HCT-116 cells): 10.6 ± 6.2 nM
- IC50 (A549 cells): 4.8 ± 3.6 nM

SMILES: CC[C@]1(O)c2cc3n(c(=O)c2COC(=O)[C@@H]1O)Cc1cc2cc4c(cc2nc1-3)OCCO4 [Ysb-8]
- IC50 (HCT-116 cells): 3.4 ± 1.2 nM
- IC50 (A549 cells): 2.9 ± 1.3 nM

SMILES: CC[C@]1(O)c2cc3n(c(=O)c2COC(=O)[C@@H]1OC(C)=O)Cc1cc2cc4c(cc2nc1-3)OCO4 [Ysb-5]
- IC50 (HCT-116 cells): 2.1 ± 0.3 nM
- IC50 (A549 cells): 1.2 ± 0.7 nM

SMILES: CC[C@]1(O)c2cc3n(c(=O)c2COC(=O)[C@@H]1O)Cc1cc2cc4c(cc2nc1-3)OCO4 [Ysb-6, (20S,20aR)-9,10-(1,3-dioxolane)-20a-hydroxylhomocamptothecin]
- IC50 (HCT-116 cells): 3.1 ± 0.7 nM
- IC50 (A549 cells): 3.1 ± 1.6 nM

SMILES: CC[C@]1(O)c2cc3n(c(=O)c2COC(=O)[C@@H]1OC(C)=O)Cc1cc2cc(OC)ccc2nc1-3 [Ysb-3, (20S,20aR)-10-methoxy-20a-acetoxyhomocamptothecin]
- IC50 (HCT-116 cells): 4.4 ± 1 nM
- IC50 (A549 cells): 4.7 ± 1.1 nM

SMILES: CCc1c2c(nc3ccc(O)cc13)-c1cc3c(c(=O)n1C2)COC(=O)[C@]3(O)CC [SN-38, reference compound]
- IC50 (HCT-116 cells): 40.8 ± 5.8 nM
- IC50 (A549 cells): 30.4 ± 11.5 nM
